{"source": "ChEMBL document CHEMBL4390652", "about": "“Design, biological evaluation and X-ray crystallography of nanomolar multifunctional ligands targeting simultaneously acetylcholinesterase and glycogen synthase kinase-3” (Eur J Med Chem, 2019)", "key": {"[1]": {"target": "Ankyrin repeat and protein kinase domain-containing protein 1 (Homo sapiens) (UniProt Q8NFD2)", "sequence (Q8NFD2 whole entry, the tested form may be a part)": "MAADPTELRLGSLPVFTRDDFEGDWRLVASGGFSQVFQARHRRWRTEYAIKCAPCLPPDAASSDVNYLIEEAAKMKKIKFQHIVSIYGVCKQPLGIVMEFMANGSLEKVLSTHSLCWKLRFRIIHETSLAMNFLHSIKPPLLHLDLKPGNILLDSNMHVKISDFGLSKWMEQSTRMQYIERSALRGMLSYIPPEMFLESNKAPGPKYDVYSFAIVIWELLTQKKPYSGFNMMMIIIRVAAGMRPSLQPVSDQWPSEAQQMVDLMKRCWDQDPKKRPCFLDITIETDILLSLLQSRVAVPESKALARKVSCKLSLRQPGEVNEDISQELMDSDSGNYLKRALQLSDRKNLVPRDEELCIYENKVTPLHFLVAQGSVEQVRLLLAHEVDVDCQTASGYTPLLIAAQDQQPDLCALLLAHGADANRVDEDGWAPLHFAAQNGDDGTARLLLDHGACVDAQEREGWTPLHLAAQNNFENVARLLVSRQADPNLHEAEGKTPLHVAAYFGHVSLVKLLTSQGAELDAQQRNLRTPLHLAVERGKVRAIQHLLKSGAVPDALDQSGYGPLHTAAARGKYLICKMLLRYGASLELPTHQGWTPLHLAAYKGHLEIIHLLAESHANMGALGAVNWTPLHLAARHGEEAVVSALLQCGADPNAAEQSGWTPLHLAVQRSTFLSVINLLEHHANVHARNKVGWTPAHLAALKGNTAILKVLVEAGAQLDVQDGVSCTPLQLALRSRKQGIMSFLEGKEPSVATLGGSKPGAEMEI", "assay": "Binding affinity to wild-type human partial length ANKK1 (M1 to A305 residues) expressed in mammalian expression system assessed as residual binding level at 10 uM by Kinomescan method relative to control"}, "[2]": {"target": "Calcium/calmodulin-dependent protein kinase type 1D (Homo sapiens) (UniProt Q8IU85)", "assay": "Binding affinity to wild-type human partial length CAMK1D (M1 to K299 residues) expressed in bacterial expression system assessed as residual binding level at 10 uM by Kinomescan method relative to control"}, "[3]": {"target": "Cyclin-dependent kinase 11B (Homo sapiens) (UniProt P21127)", "assay": "Binding affinity to wild-type human partial length CDC2L1 (P353 to G692 residues) expressed in bacterial expression system assessed as residual binding level at 10 uM by Kinomescan method relative to control"}, "[4]": {"target": "Dual specificity protein kinase CLK3 (Homo sapiens) (UniProt P49761)", "assay": "Binding affinity to wild-type human full length CLK3 (M1 to R490 residues) expressed in bacterial expression system assessed as residual binding level at 10 uM by Kinomescan method relative to control"}, "[5]": {"target": "Receptor tyrosine-protein kinase erbB-4 (Homo sapiens) (UniProt Q15303)", "assay": "Binding affinity to wild-type human partial length ERBB4 (L690 to K994 residues) expressed in bacterial expression system assessed as residual binding level at 10 uM by Kinomescan method relative to control"}, "[6]": {"target": "Fibroblast growth factor receptor 2 (Homo sapiens) (UniProt P21802)", "assay": "Binding affinity to wild-type human partial length FGFR2 (D457 to E769 residues) expressed in bacterial expression system assessed as residual binding level at 10 uM by Kinomescan method relative to control"}, "[7]": {"target": "Homeodomain-interacting protein kinase 4 (Homo sapiens) (UniProt Q8NE63)", "assay": "Binding affinity to wild-type human partial length HIPK4 (M1 to V384 residues) expressed in bacterial expression system assessed as residual binding level at 10 uM by Kinomescan method relative to control"}, "[8]": {"target": "Inhibitor of nuclear factor kappa-B kinase subunit epsilon (Homo sapiens) (UniProt Q14164)", "sequence (Q14164 whole entry, the tested form may be a part)": "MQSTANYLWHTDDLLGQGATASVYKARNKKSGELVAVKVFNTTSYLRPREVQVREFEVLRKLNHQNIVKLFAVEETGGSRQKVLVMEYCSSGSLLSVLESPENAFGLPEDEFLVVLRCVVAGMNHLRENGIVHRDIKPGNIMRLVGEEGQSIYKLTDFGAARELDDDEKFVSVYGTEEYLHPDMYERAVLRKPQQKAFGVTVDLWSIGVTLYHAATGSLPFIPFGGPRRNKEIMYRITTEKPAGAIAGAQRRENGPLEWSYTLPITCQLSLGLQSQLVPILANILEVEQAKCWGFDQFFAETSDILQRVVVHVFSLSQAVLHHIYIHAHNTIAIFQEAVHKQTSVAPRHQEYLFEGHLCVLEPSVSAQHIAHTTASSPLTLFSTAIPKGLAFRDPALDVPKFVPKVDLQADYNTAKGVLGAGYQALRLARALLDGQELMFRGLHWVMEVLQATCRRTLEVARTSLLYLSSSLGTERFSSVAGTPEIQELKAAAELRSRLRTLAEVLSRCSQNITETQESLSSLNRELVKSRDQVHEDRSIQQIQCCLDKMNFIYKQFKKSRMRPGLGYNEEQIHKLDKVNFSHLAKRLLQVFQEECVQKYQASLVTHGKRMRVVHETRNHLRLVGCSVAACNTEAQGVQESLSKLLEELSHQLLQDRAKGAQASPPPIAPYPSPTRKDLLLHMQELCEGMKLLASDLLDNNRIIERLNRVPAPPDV", "assay": "Binding affinity to wild-type human full length IKK-epsilon (M1 to V716 residues) expressed in mammalian expression system assessed as residual binding level at 10 uM by Kinomescan method relative to control"}, "[9]": {"target": "Mitogen-activated protein kinase 8 (Homo sapiens) (UniProt P45983)", "sequence (P45983 whole entry, the tested form may be a part)": "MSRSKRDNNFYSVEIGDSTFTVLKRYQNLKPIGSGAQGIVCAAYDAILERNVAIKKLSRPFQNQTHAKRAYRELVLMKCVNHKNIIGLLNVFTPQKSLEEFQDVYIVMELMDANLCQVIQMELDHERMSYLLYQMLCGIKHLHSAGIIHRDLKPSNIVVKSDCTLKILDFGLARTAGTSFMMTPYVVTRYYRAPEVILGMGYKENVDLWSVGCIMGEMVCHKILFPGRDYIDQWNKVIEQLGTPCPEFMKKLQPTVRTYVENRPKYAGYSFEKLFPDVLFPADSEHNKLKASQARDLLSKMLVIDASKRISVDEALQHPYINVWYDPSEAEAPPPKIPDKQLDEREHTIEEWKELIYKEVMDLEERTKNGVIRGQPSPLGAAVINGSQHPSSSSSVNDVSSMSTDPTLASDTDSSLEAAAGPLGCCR", "assay": "Binding affinity to wild-type human full length JNK1 (M1 to Q384 residues) expressed in mammalian expression system assessed as residual binding level at 10 uM by Kinomescan method relative to control"}, "[10]": {"target": "Mitogen-activated protein kinase kinase kinase kinase 4 (Homo sapiens) (UniProt O95819)", "sequence (O95819 2-1239 limits assumed)": "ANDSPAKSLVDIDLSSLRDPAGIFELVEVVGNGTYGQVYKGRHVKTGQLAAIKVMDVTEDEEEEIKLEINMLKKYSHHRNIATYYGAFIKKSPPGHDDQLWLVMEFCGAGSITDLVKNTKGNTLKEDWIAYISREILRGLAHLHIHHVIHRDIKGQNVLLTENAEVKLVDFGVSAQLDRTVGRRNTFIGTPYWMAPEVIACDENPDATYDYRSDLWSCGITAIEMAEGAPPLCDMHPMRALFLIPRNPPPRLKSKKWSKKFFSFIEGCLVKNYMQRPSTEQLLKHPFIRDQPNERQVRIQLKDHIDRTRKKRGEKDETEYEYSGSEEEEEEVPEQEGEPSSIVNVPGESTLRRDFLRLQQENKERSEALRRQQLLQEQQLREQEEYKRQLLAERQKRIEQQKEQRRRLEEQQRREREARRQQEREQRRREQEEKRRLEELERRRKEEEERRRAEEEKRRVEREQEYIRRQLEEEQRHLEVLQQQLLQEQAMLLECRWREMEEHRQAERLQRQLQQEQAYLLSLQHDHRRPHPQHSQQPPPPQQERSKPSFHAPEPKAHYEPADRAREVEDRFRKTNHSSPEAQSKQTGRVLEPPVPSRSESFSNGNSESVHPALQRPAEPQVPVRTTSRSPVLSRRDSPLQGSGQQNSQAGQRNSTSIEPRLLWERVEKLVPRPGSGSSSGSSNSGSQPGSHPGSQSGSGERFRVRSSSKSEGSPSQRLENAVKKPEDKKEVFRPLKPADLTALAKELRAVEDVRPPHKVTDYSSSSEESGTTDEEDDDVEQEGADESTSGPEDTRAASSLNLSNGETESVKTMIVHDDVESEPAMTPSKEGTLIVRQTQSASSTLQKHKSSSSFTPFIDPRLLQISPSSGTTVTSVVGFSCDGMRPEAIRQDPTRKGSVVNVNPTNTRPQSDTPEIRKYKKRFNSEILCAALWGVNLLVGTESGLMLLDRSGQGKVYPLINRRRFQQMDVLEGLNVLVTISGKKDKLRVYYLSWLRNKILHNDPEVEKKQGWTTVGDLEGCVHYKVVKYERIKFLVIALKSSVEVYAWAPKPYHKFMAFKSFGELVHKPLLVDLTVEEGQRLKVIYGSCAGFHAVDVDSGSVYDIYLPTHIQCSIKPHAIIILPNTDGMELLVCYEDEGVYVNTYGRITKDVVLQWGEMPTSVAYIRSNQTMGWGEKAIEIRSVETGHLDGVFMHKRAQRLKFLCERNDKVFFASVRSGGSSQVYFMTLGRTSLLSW", "assay": "Binding affinity to wild-type human partial length MAP4K4 (M1 to R310 residues) expressed in bacterial expression system assessed as residual binding level at 10 uM by Kinomescan method relative to control"}, "[11]": {"target": "Microtubule-associated serine/threonine-protein kinase 1 (Homo sapiens) (UniProt Q9Y2H9)", "assay": "Binding affinity to wild-type human partial length MAST1 (S346 to V730 residues) expressed in mammalian expression system assessed as residual binding level at 10 uM by Kinomescan method relative to control"}, "[12]": {"target": "Hepatocyte growth factor receptor (Homo sapiens) (UniProt P08581)", "assay": "Binding affinity to wild-type human partial length MET (D1010 to S1367 residues) expressed in bacterial expression system assessed as residual binding level at 10 uM by Kinomescan method relative to control"}, "[13]": {"target": "Myosin-IIIa (Homo sapiens) (UniProt Q8NEV4)", "assay": "Binding affinity to wild-type human partial length MYO3A (M1 to K338 residues) expressed in bacterial expression system assessed as residual binding level at 10 uM by Kinomescan method relative to control"}, "[14]": {"target": "Cyclin-dependent kinase 15 (Homo sapiens) (UniProt Q96Q40)", "assay": "Binding affinity to wild-type human full length PFTAIRE2 (M1 to W384 residues) expressed in bacterial expression system assessed as residual binding level at 10 uM by Kinomescan method relative to control"}, "[15]": {"tested_on": "Phosphatidylinositol 4,5-bisphosphate 3-kinase catalytic subunit alpha isoform (Homo sapiens), P42336 [E542K]", "assay": "Binding affinity to human partial length PIK3CA E542K mutant (R108 to N1068 residues) expressed in mammalian expression system assessed as residual binding level at 10 uM by Kinomescan method relative to control"}, "[16]": {"tested_on": "Phosphatidylinositol 4,5-bisphosphate 3-kinase catalytic subunit alpha isoform (Homo sapiens), P42336 [E545A]", "assay": "Binding affinity to human partial length PIK3CA E545A mutant (R108 to N1068 residues) expressed in mammalian expression system assessed as residual binding level at 10 uM by Kinomescan method relative to control"}, "[17]": {"tested_on": "Phosphatidylinositol 4,5-bisphosphate 3-kinase catalytic subunit alpha isoform (Homo sapiens), P42336 [Q546K]", "assay": "Binding affinity to human partial length PIK3CA Q546K mutant (R108 to N1068 residues) expressed in mammalian expression system assessed as residual binding level at 10 uM by Kinomescan method relative to control"}, "[18]": {"target": "1-phosphatidylinositol 3-phosphate 5-kinase (Homo sapiens) (UniProt Q9Y2I7)", "assay": "Binding affinity to wild-type human partial length PIKFYVE (F1512 to C2098 residues) expressed in mammalian expression system assessed as residual binding level at 10 uM by Kinomescan method relative to control"}, "[19]": {"target": "Protein kinase C epsilon type (Homo sapiens) (UniProt Q02156)", "assay": "Binding affinity to wild-type human partial length PRKCE (A378 to P737 residues) expressed in mammalian expression system assessed as residual binding level at 10 uM by Kinomescan method relative to control"}, "[20]": {"target": "Protein-tyrosine kinase 2-beta (Homo sapiens) (UniProt Q14289)", "assay": "Binding affinity to wild-type human full length PYK2 (M1 to E967 residues) expressed in bacterial expression system assessed as residual binding level at 10 uM by Kinomescan method relative to control"}, "[21]": {"target": "Serine/threonine-protein kinase Sgk2 (Homo sapiens) (UniProt Q9HBY8)", "assay": "Binding affinity to wild-type human partial length SGK2 (L54 to C427 residues) expressed in mammalian expression system assessed as residual binding level at 10 uM by Kinomescan method relative to control"}, "[22]": {"target": "Tyrosine-protein kinase Tec (Homo sapiens) (UniProt P42680)", "sequence (P42680 whole entry, the tested form may be a part)": "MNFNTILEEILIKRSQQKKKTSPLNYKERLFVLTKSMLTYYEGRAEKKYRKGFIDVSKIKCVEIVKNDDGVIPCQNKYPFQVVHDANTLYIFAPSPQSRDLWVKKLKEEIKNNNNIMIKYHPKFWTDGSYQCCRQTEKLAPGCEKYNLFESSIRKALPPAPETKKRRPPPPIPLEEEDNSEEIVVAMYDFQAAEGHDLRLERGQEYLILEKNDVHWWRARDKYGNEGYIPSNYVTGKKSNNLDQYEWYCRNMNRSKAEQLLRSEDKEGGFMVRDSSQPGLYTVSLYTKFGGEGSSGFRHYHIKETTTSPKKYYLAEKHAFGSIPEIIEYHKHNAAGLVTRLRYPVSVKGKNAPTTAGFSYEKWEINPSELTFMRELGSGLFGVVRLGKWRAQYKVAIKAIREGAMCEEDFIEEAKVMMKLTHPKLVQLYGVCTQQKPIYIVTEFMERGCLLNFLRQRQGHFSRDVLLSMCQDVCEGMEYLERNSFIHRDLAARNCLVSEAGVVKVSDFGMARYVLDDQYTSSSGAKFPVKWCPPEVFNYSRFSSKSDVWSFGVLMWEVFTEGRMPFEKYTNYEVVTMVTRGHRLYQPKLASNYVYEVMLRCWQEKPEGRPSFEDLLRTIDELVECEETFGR", "assay": "Binding affinity to wild-type human partial length TEC (L341 to D620 residues) expressed in bacterial expression system assessed as residual binding level at 10 uM by Kinomescan method relative to control"}, "[23]": {"target": "NT-3 growth factor receptor (Homo sapiens) (UniProt Q16288)", "sequence (Q16288 32-839 limits assumed)": "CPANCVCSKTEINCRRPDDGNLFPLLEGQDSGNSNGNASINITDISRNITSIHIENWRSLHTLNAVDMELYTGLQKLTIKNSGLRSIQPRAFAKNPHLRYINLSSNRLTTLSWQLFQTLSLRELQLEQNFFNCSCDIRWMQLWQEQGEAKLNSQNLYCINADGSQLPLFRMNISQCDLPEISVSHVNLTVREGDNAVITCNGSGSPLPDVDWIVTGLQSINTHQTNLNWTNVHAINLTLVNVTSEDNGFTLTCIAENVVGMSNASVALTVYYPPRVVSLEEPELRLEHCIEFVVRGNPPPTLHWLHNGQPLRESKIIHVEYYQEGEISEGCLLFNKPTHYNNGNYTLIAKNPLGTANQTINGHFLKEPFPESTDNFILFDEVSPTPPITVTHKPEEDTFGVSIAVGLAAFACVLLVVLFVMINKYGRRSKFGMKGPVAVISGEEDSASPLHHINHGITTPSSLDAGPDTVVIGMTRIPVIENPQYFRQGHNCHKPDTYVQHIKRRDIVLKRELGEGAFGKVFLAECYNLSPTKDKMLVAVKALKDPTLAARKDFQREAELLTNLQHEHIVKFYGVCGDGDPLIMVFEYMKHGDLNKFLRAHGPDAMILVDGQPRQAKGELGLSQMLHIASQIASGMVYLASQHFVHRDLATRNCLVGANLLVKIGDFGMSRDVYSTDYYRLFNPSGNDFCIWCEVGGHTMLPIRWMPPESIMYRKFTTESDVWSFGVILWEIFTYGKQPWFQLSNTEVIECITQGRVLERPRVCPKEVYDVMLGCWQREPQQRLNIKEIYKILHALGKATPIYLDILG", "assay": "Binding affinity to wild-type human partial length TRKC (Q531 to G825 residues) expressed in mammalian expression system assessed as residual binding level at 10 uM by Kinomescan method relative to control"}, "[24]": {"target": "Serine/threonine-protein kinase 32A (Homo sapiens) (UniProt Q8WU08)", "sequence (Q8WU08 whole entry, the tested form may be a part)": "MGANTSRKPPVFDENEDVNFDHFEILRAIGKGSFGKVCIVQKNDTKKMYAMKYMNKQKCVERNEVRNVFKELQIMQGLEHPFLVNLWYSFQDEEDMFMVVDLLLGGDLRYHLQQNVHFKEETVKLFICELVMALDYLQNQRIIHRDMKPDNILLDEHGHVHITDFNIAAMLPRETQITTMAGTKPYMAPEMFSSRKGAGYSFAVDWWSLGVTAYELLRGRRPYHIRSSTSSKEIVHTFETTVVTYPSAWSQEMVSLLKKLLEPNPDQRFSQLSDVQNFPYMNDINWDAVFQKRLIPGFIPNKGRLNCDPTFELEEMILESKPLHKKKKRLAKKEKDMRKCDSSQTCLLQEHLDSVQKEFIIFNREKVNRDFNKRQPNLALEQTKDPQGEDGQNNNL", "assay": "Binding affinity to wild-type human full length YANK1 (M1 to L396 residues) expressed in mammalian expression system assessed as residual binding level at 10 uM by Kinomescan method relative to control"}}}
{"smiles": "O=C(Nc1cc(-c2cn(CCNc3c4c(nc5ccccc35)CCCC4)nn2)ccn1)Nc1cccc2c1C1CCCCN1C2=O", "note": "(racemic)", "values": [{"measurement": "Activity", "setting": "[1]", "result": 93, "unit": "%"}, {"measurement": "Activity", "setting": "[2]", "result": 48, "unit": "%"}, {"measurement": "Activity", "setting": "[3]", "result": 99, "unit": "%"}, {"measurement": "Activity", "setting": "[4]", "result": 100, "unit": "%"}, {"measurement": "Activity", "setting": "[5]", "result": 87, "unit": "%"}, {"measurement": "Activity", "setting": "[6]", "result": 21, "unit": "%"}, {"measurement": "Activity", "setting": "[7]", "result": 84, "unit": "%"}, {"measurement": "Activity", "setting": "[8]", "result": 52, "unit": "%"}, {"measurement": "Activity", "setting": "[9]", "result": 0.55, "unit": "%"}, {"measurement": "Activity", "setting": "[10]", "result": 97, "unit": "%"}, {"measurement": "Activity", "setting": "[11]", "result": 100, "unit": "%"}, {"measurement": "Activity", "setting": "[12]", "result": 57, "unit": "%"}, {"measurement": "Activity", "setting": "[13]", "result": 75, "unit": "%"}, {"measurement": "Activity", "setting": "[14]", "result": 11, "unit": "%"}, {"measurement": "Activity", "setting": "[15]", "result": 72, "unit": "%"}, {"measurement": "Activity", "setting": "[16]", "result": 72, "unit": "%"}, {"measurement": "Activity", "setting": "[17]", "result": 84, "unit": "%"}, {"measurement": "Activity", "setting": "[18]", "result": 15, "unit": "%"}, {"measurement": "Activity", "setting": "[19]", "result": 100, "unit": "%"}, {"measurement": "Activity", "setting": "[20]", "result": 74, "unit": "%"}, {"measurement": "Activity", "setting": "[21]", "result": 10, "unit": "%"}, {"measurement": "Activity", "setting": "[22]", "result": 93, "unit": "%"}, {"measurement": "Activity", "setting": "[23]", "result": 14, "unit": "%"}, {"measurement": "Activity", "setting": "[24]", "result": 95, "unit": "%"}]}
